Assay: amide bond formation (macrolactamization of free amino acid tripeptides containing anthranilic acid), HATU (1.2 equiv), Et3N (1.2 equiv), high dilution
Conditions: 10-membered ring, CH2Cl2, 3.0 mM, 0.0 °C, 2 steps

In the case of `CC(=O)N1c2ccccc2[C@H]2C[C@H]3C(=O)N[C@@H](C(C)C)C(=O)Nc4ccccc4C(=O)N3[C@H]21` (mixture of isomers) [endo-47 -> endo-48 (1 step, from exo/endo mixture)], the ring closure, yield over several steps (from CC(=O)N1c2ccccc2[C@H]2C[C@@H](C(=O)N[C@H](C(=O)Nc3ccccc3C(=O)O)C(C)C)N[C@H]21, 1.0 h) is reported as 19%.

`CC(C)[C@@H]1NC(=O)[C@@H](Cc2cn(C(=O)OC(C)(C)C)c3ccccc23)NC(=O)c2ccccc2NC1=O` [H-D-Trp(1-Boc)-Val-Abz(2)-OH] gave a ring closure, yield over several steps (from CC(C)[C@H](NC(=O)[C@H](N)Cc1cn(C(=O)OC(C)(C)C)c2ccccc12)C(=O)Nc1ccccc1C(=O)O, 0.83 h) of 56%.

Molecule `C=CC(C)(C)[C@@]12C[C@H]3C(=O)N[C@@H](C(C)C)C(=O)Nc4ccccc4C(=O)N3[C@@H]1N(C(C)=O)c1ccccc12` [exo-69 -> L-Trp-exo-11 (slow addition; trace)] has a ring closure, yield over several steps (from C=CC(C)(C)[C@@]12C[C@@H](C(=O)O)N(C(=O)c3ccccc3NC(=O)[C@@H](N)C(C)C)[C@@H]1N(C(C)=O)c1ccccc12) of 0%.

Work on `C=CC(C)(C)[C@]12C[C@H]3C(=O)N[C@@H](C(C)C)C(=O)Nc4ccccc4C(=O)N3[C@H]1N(C(C)=O)c1ccccc12` [endo-69 -> L-Trp-endo-11 (slow addition; decomposition)] yielded a ring closure, yield over several steps (from C=CC(C)(C)[C@]12C[C@@H](C(=O)O)N(C(=O)c3ccccc3NC(=O)[C@@H](N)C(C)C)[C@H]1N(C(C)=O)c1ccccc12) of 0%.

For `CC(=O)N1c2ccccc2[C@@H]2C[C@H]3C(=O)N[C@@H](C(C)C)C(=O)Nc4ccccc4C(=O)N3[C@@H]21` (mixture of isomers) [exo-47 -> exo-48 (1 step, from exo/endo mixture)], the ring closure, yield over several steps (from CC(=O)N1c2ccccc2[C@@H]2C[C@@H](C(=O)N[C@H](C(=O)Nc3ccccc3C(=O)O)C(C)C)N[C@@H]21, 1.0 h) was 29%.

With `C=CC(C)(C)[C@@]12C[C@H]3C(=O)N[C@@H](C(C)C)C(=O)Nc4ccccc4C(=O)N3[C@@H]1N(C(C)=O)c1ccccc12` [exo-75 -> L-Trp-exo-11 (incl. Boc removal)] the ring closure, yield over several steps (from C=CC(C)(C)[C@@]12C[C@@H](C(=O)N[C@H](C(=O)Nc3ccccc3C(=O)O)C(C)C)N[C@@H]1N(C(C)=O)c1ccccc12, 1.5 h) was 97%.

With `CC(=O)n1cc(C[C@H]2NC(=O)c3ccccc3NC(=O)[C@H](C(C)C)NC2=O)c2ccccc21` [H-D-Trp(1-Ac)-Val-Abz(2)-OH] the ring closure, yield over several steps (from CC(=O)n1cc(C[C@@H](N)C(=O)N[C@H](C(=O)Nc2ccccc2C(=O)O)C(C)C)c2ccccc21, 1.17 h) was 53%.

`C=CC(C)(C)[C@]12C[C@H]3C(=O)N[C@@H](C(C)C)C(=O)Nc4ccccc4C(=O)N3[C@H]1N(C(C)=O)c1ccccc12` [endo-75 -> L-Trp-endo-11 (incl. Boc removal)] gave a ring closure, yield over several steps (from C=CC(C)(C)[C@]12C[C@@H](C(=O)N[C@H](C(=O)Nc3ccccc3C(=O)O)C(C)C)N[C@H]1N(C(C)=O)c1ccccc12, 2.0 h) of 87%.

In the case of `CC(=O)n1cc(C[C@@H]2NC(=O)c3ccccc3NC(=O)[C@H](C(C)C)NC2=O)c2ccccc21` [H-Trp(1-Ac)-Val-Abz(2)-OH], the ring closure, yield over several steps (from CC(=O)n1cc(C[C@H](N)C(=O)N[C@H](C(=O)Nc2ccccc2C(=O)O)C(C)C)c2ccccc21) is reported as 0%.
